A short description of the data set: Diffusion of fluorescein or calcein through a droplet interface bilayer in an AM-EWOD device. In kind it is physicochemical. The procedure: An investigation of the transport of aqueous phase elements between droplets suspended in a non-aqueous supporting medium is conducted. Phospholipid stabilized water in oil droplets are dispensed within an AM-EWOD device. Such droplets are used to produce droplet interface bilayers (DIBs) by the bringing together of individual droplets within the AM-EWOD device. DIBs are used to study diffusion of a solute across the bilayer membrane, as well as to study active transport through pores or ion channels formed in the DIB. In a first experiment, diffusion of fluorescein or calcein through a bilayer is investigated. Under conditions of neutral pH, calcein, a derivative of fluorescein, is generally more polar than fluorescein. […] Thus, fluorescein may more readily diffuse through a bilayer, whereas calcein may not. Three populations of droplets are dispensed within an AM-EWOD device. A first population contains buffer, a second population contains fluorescein at 100 μM concentration, and a third population contains calcein at 100 μM concentration. Droplets containing buffer are brought into contact respectively with droplets containing fluorescein or calcein, under control of the AM-EWOD device. Fluorescence intensity is determined at time t0, t1 (30 minutes) and t2 (60 minutes), with excitation wavelength 494 nm and emission wavelength 515 nm.

Structures are written as SMILES.

Take `O=C(O)CN(CC(=O)O)Cc1cc2c(cc1O)Oc1cc(O)c(CN(CC(=O)O)CC(=O)O)cc1C21OC(=O)c2ccccc21` [calcein]: the “Fluorescence from the buffer containing droplet after DIB formation” value (after 60 minutes, 100 μM dye droplet, excitation 494 nm, emission 515 nm) is recorded as “no detectable fluorescence”. For the same molecule, the “Diffusion across the bilayer” value (summary of results) is “not”.

The values are drawn from patent US11219898B2, “Molecular separation by diffusion using an EWOD device” (Sharp Life Science (EU) Limited, priority 2019, dated 2022).
